Laboratory results published in PubChem BioAssay (NCI).
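These data come from cells grown in 96-well plates and exposed to compound for 48 hours at five concentrations. TGI: concentration producing complete growth inhibition.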

Legend:
Experiment in all cases: DTP human tumour cell line panel, 48 h
[1] = test system: ACHN renal
[2] = test system: COLO 205 colon
[3] = test system: DU-145 prostate
[4] = test system: EKVX NSCLC
[5] = test system: HS 578T breast
[6] = test system: IGROV1 ovarian
[7] = test system: MOLT-4 leukemia
[8] = test system: NCI-H226 lung
[9] = test system: NCI-H460 lung
[10] = test system: OVCAR-4 ovarian
[11] = test system: OVCAR-5 ovarian
[12] = test system: PC-3 prostate
[13] = test system: RXF 393 renal
[14] = test system: SF-268 CNS
[15] = test system: SF-295 CNS
[16] = test system: SF-539 CNS
[17] = test system: SN12C renal
[18] = test system: SNB-75 CNS
[19] = test system: T-47D breast
[20] = test system: UACC-62 melanoma

Structure (SMILES)	TGI [1] [µM]	TGI [2] [µM]	TGI [3] [µM]	TGI [4] [µM]	TGI [5] [µM]	TGI [6] [µM]	TGI [7] [µM]	TGI [8] [µM]	TGI [9] [µM]	TGI [10] [µM]	TGI [11] [µM]	TGI [12] [µM]	TGI [13] [µM]	TGI [14] [µM]	TGI [15] [µM]	TGI [16] [µM]	TGI [17] [µM]	TGI [18] [µM]	TGI [19] [µM]	TGI [20] [µM]
COC(=O)c1ccccc1C1CN=NC12Cc1ccccc1C2=O (stereo not given)	> 100	> 100	> 100	> 100	> 100	> 100	> 100	> 100	> 100	> 100	> 100	> 100	> 100	> 100	> 100	> 100	> 100	> 100	> 100	> 100
CCn1c(SCC(=O)N/N=C/c2ccccc2)nc2ccccc2c1=O	> 100	> 100	> 100	> 100	49.3	> 93.1	> 100	67.6	9.63	72.8	> 100	> 46.4	27.2	> 70.2	33.1	38.4	> 100	54.5	> 100	52.1
O=c1c2cc(-c3ccccc3)sc2nc2n1N=C(c1ccc(Cl)cc1)CS2	> 100	> 100	> 100	> 100	> 100	> 100	> 100	> 100	> 100	> 100	> 100	> 100	> 100	> 100	> 100	> 100	> 100	> 100	> 100	> 100
COc1ccc(/C=C2\CN(C)C/C(=C\c3ccc(OC)cc3)C2=O)cc1	> 100	> 100	> 100	> 100	> 100	> 100	> 100	> 100	> 100	> 100	> 100	> 100	> 100	> 100	> 100	> 100	> 100	> 100	> 100	> 100
CCCCCCc1ccc(C(=O)NO)cc1	88.5	> 100	68.4	> 100	> 100	> 100	50	> 100	72.3	84.4	> 100	> 100	> 100	> 100	> 100	> 100	64.5	> 100	82.9	66.6
CC1(C)CCc2c(c(N=Nc3ccc(S(N)(=O)=O)cc3)c3ccccc3c2O)O1	56.7	44.9	25	57.1	> 100	40.1	82.7	57.5	24.3	26	38.2	36.1	24.6	84.9	24	22.2	23.2	16.6	49.3	34.3
C=C1C(=O)O[C@@H]2[C@@H]3O[C@@H](C[C@@H]13)[C@](C)(O)CC/C=C(\C)CCC[C@@H]2C	21.2	31.5	29.6	32	37.8	22.6	> 100	36.1	30.8	29.6	48	22.9	30.1	43.9	44.7	24.9	25.3	26.1	43.9	25.4
NC(N)=NS(=O)(=O)c1ccc(NNc2c3ccccc3nc3c(C(=O)Nc4ccc(S(=O)(=O)N=C(N)N)cc4)cccc23)cc1	> 100	> 100	> 100	95.8	> 100	> 100	80.4	> 100	> 100	> 100	> 100	> 100	> 100	> 100	> 100	> 100	> 100	> 100	> 100	> 100
O=C1c2ccccc2CN1c1ccc(OCCN2CCCCC2)cc1	> 10	> 10	> 10	> 10	> 10	> 10	> 10	> 10	> 10	> 10	> 10	> 10	> 10	> 10	> 10	> 10	> 10	> 10	> 10	> 10
CCCCCCCCCCCCCCCCCCN(C)C(COC)COP(=O)([O-])OCC[N+](C)(C)C (stereo not given)	26.9	3.22	24.5	34.2	22.5	3.27	4.28	12.1	4.38	12.3	6.32	3.32	3.12	12.5	10.3	19	19.5	8.3	34.1	19.2
Clc1ccc(OCc2nnc(CCCCCCCCc3nnc(COc4ccc(Cl)cc4Cl)n3Nc3ccccc3)n2Nc2ccccc2)c(Cl)c1	46.1	3.38	> 62.7	> 68.3	31.4	47.7	> 100	38	21.1	59.5	43.9	34.8	40.8	32.1	17.3	33.5	38.1	70.3	> 100	15.7
O=C1c2ccccc2C(=O)N1CC1S(=O)(=O)OCCOS1(=O)=O	> 100	> 100	> 100	> 100	> 100	> 100	> 100	> 100	> 100	> 100	> 100	> 100	> 100	> 100	> 100	> 100	> 100	> 100	> 100	> 100
